Results published in US20150352134A1, “COMPOSITION FOR TOPICAL SKIN APPLICATION CONTAINING GINSENOSIDE F2 DERIVED FROM HYDROPONIC GINSENG” (AMOREPACIFIC CORPORATION, priority 2012, published 2015).

What was measured:
PAR-2 = biological target: T1, PAR-2 (Homo sapiens, UniProt P55085); test: Itching relief: inflow of Ca2+ into HaCaT keratinocytes after trypsin or PAR-2 activated peptide; assay type: cell-based
T1 construct: host or cells: HaCaT keratinocytes
T1 sequence (P55085 26-397): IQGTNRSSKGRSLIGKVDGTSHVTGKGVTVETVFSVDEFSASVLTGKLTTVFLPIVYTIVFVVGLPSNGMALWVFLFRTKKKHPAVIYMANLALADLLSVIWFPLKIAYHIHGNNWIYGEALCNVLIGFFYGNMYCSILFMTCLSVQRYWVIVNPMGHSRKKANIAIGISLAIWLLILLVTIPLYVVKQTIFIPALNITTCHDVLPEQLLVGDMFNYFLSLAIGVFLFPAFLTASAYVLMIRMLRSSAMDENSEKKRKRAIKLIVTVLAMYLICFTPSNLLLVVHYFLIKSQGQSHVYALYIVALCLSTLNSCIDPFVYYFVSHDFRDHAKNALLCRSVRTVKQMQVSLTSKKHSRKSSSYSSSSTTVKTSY
Experimental: One day before the testing, keratinocytes (HaCaT purchased from ATCC) are injected into a 96-well plate at a rate of 4×10^4 cells/well and cultured in an incubator under conditions of 5% CO2 and 37° C. for 24 hours. After 24 hours, the culture plate is washed with HBSS (Hank's Balanced Salt Solution) buffer twice, and a reaction buffer (2 μM Fluo-4-AM, 20% pluronic acid, 2.5 mM probenecid) is added to the cells. The culture plate is kept in an incubator under conditions of 5% CO2 and 37° C. for 30 minutes and allowed to react at the room temperature for 30 minutes. Then, the culture plate is washed with HBSS buffer twice, and the cells are treated with ginsenoside F2 at a concentration (%) as given in Table 25.
After completion of the reaction for 10 minutes, the cells are treated with 2 U/ml trypsin or 5 μM PAR-2 activated peptide (SLIGKV), and then the change of Ca^2+ concentration in the cells for 80 seconds is measured. The measurement method uses FlexStation3® (Molecular Device, U.S.A.). The difference between minimum and maximum flex values for 80 seconds after treatment with 2 U/ml trypsin or 5 μM PAR-2 activated peptide (SLIGKV) in combination with ginsenoside F2 is compared with the difference between minimum and maximum flex values for 80 seconds after treatment with 2 U/ml trypsin or 5 μM PAR-2 activated peptide (SLIGKV) alone.

[1] = system: prostaglandin generation in macrophagocytes collected from the abdominal cavity of a mouse; test: Prostaglandin generation inhibition in LPS-treated macrophagocytes (ELISA); assay type: cell-based; details: 100 μl of ginsenoside F2
Experimental: The inflammatory effect is evaluated in terms of the inhibitory effect on prostaglandin generation. Ginsenoside F2 is used to measure the effect on macrophagocytes. Firstly, macrophagocytes collected from the abdominal cavity of a mouse are treated with aspirin to have the final concentration of 500 µM, causing irreversible inhibition on the activity of cyclooxygenase (COX) remaining in the macrophagocytes. Then, 100 μl of the suspension is put in each well of a 96-well culture plate and cultured in an incubator under the conditions of 5% CO2 and 37° C. for 2 hours to immobilize the macrophagocytes on the surface of the container. Subsequently, the immobilized macrophagocytes are washed with PBS three times and used in the inflammatory improvement test. […] Then, the macrophagocytes are treated with 100 μl of ginsenoside F2, and the isolated prostaglandin is quantitatively analyzed by way of ELISA (Enzyme-Linked ImmunoSorbent Assey).
In this regard, the prostaglandin generation inhibitory activity of the ginsenoside F2 is determined by the reduced amount of prostaglandin generated in the LPS-treated group in comparison with the case of the control in terms of the percentage amount of the prostaglandin decreased by treatment with LPS and the sample, while the difference in the amount of the generated prostaglandin between the LPS-treated group and the control group is set to 100%.

Pseudomonas aeruginosa = test: Antibacterial effect, MIC; assay type: cell-based; details: 48 hours, 32°
Experimental: (§1) The antibacterial testing is carried out in order to evaluate the antibacterial effect of ginsenoside F2. The detailed testing method is as follows. Staphylococcus aureus, Escherichia coli, and pseudomonas aeruginosa strains are cultured with a tryptic soy broth, and candida albicans and aspergillus niger strains are cultured with sabouraud dextrose broth. The test bacterial liquid is the 1/100 (1/10 for candida albicans strain) diluted solution of the culture medium diluted with each medium. For aspergillus niger, the test bacterial liquid is the spore suspension prepared to 2×10^8 cfu/ml. 0.15 ml of the test bacterial liquid is added to 15 ml of each culture medium to prepare a well-blended diluted solution. 16 μl of the sample is put into each well on the first row of a 96-well plate, and 184 μl of the diluted solution is added to each well on the first row. Then, 100 μl of the diluted solution is put into each of the other wells. The mixed solution of the first row is sufficiently stirred, and 100 μl of the mixed solution is added to each well on the second row of the 96-well plate and stirred sufficiently. 100 μl of the mixed solution on the second row is taken and added to each well on the third row to achieve two-fold serial dilution. Straphylococcus aureus, Escherichia coli, and Pseudomonas aeruginosa strains are cultured in a thermostat container at 32°, and Candida albicans and Aspergillus niger strains are cultured in a thermostat container at 25° C. 48 hours later, the cell proliferation is determined by the turbidity index and microscopic observation to determine the minimum inhibitory concentration (MIC).

Aspergillus niger = test: Antibacterial effect, MIC; assay type: cell-based; details: 48 hours, 25° C.
Experimental: as §1

Escherichia coli = test: Antibacterial effect, MIC; assay type: cell-based; details: 48 hours, 32°
Experimental: as §1

Candida albicans = test: Antibacterial effect, MIC; assay type: cell-based; details: 48 hours, 25° C.
Experimental: as §1

Straphylococcus aureus = test: Antibacterial effect, MIC; assay type: cell-based, Staphylococcus aureus; details: 48 hours, 32°
Experimental: as §1, with “100 μl of the mixed solution on the second row is taken and added to each well on the third row to achieve two-fold serial dilution. Straphylococcus aureus, Escherichia coli, and Pseudomonas aeruginosa strains are cultured in a thermostat container at 32°, and Candida albicans and Aspergillus niger strains are cultured in a thermostat container at 25° C.” left out

SMILES: CC(C)=CCC[C@](C)(O[C@@H]1O[C@H](CO)[C@@H](O)[C@H](O)[C@H]1O)[C@H]1CC[C@]2(C)[C@@H]1[C@H](O)C[C@@H]1[C@@]3(C)CC[C@H](O[C@@H]4O[C@H](CO)[C@@H](O)[C@H](O)[C@H]4O)C(C)(C)[C@@H]3CC[C@]12C [Ginsenoside F2, ginsenoside F2]
- Inhibition rate (%) on inflow of Ca^2+ into cells, Trypsin (2 U/ml) (PAR-2; 0.05% ginsenoside F2): 23%
- Inhibition rate (%) on inflow of Ca^2+ into cells, Trypsin (2 U/ml) (PAR-2; 0.1% ginsenoside F2): 30%
- Inhibition rate (%) on inflow of Ca^2+ into cells, Trypsin (2 U/ml) (PAR-2; 1.0% ginsenoside F2): 41%
- inhibition at 0.05 % (PAR-2; HaCaT, 0.05% ginsenoside F2, read-out: Inhibition rate (%) on inflow of Ca^2+ into cells, PAR-2 activated peptide (5 μM)): 26%
- inhibition at 0.1 % (PAR-2; HaCaT, 0.1% ginsenoside F2, read-out: Inhibition rate (%) on inflow of Ca^2+ into cells, PAR-2 activated peptide (5 μM)): 35%
- inhibition at 0.5 % (PAR-2; HaCaT, 0.5% ginsenoside F2, read-out: Inhibition rate (%) on inflow of Ca^2+ into cells, PAR-2 activated peptide (5 μM)): 40%
- inhibition at 1 % (PAR-2; HaCaT, 1.0% ginsenoside F2, read-out: Inhibition rate (%) on inflow of Ca^2+ into cells, PAR-2 activated peptide (5 μM)): 47%
- prostaglandin generation (Blank = 100%) [1]: 24.2%
- MIC (%) Pseudomonas aeruginosa (Pseudomonas aeruginosa): 0.09%
- MIC (%) Aspergillus niger (Aspergillus niger): >2%
- MIC (%) Escherichia coli (Escherichia coli): 0.13%
- MIC (%) Candida albicans (Candida albicans): >4%
- MIC (%) Straphylococcus aureus (Straphylococcus aureus): 0.07%
